The source of these data is ChEMBL document CHEMBL1201862, “PubChem BioAssay data set” (2004).

The structures appear in SMILES notation. Calls of active or inactive are those of the source.

Assay [1] addresses 5-hydroxytryptamine receptor 2A (Mus musculus, UniProt P35363). The class given is functional, cell-based.
In another assay the target is Mu-type opioid receptor (Homo sapiens, UniProt P35372). The class given is functional, cell-based.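 Also: U2OS cells with beta-arrestin recruitment to OPRM1 by beta-gal complementation.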
Sequence of Mu-type opioid receptor (P35372 whole entry): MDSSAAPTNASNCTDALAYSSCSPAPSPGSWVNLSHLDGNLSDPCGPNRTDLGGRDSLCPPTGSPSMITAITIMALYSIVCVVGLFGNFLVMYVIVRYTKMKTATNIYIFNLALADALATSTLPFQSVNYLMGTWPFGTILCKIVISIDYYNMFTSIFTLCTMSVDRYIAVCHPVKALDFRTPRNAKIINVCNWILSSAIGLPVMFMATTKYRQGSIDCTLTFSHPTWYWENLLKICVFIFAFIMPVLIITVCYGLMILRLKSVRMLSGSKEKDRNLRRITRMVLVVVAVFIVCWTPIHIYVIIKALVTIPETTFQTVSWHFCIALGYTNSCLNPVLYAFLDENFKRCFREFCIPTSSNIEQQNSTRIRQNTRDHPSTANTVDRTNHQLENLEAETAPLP
Assay [2] deals with T1, Short transient receptor potential channel 4 (Mus musculus, UniProt Q9QUQ5).
T1 sequence (Q9QUQ5 whole entry): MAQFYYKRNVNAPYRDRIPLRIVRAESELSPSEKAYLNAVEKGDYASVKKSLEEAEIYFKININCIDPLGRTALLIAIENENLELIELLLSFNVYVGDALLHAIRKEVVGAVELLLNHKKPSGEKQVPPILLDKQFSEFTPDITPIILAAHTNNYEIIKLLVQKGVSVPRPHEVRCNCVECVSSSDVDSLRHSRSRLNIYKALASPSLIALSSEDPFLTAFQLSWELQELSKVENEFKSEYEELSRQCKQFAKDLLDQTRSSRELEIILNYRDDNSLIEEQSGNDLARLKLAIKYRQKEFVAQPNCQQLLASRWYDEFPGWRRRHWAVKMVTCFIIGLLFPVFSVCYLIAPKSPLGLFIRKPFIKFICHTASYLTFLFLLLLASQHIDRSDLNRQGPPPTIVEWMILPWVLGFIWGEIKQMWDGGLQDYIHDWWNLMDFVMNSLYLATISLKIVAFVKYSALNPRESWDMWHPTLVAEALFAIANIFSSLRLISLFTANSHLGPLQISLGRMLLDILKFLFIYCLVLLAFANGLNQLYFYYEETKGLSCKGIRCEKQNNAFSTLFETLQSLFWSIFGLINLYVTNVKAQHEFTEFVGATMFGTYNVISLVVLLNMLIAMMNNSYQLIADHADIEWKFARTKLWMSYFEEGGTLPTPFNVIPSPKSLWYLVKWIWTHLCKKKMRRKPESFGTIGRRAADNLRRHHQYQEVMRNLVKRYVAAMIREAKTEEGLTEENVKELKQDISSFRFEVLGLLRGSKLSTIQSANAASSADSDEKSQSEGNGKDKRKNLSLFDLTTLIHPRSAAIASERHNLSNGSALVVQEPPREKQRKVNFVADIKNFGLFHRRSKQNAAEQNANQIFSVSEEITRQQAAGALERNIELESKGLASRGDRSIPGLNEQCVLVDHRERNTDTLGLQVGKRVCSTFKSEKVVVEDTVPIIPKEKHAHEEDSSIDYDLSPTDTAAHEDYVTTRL
Briefly: block of DAMGO-driven TRPC4 calcium entry – cell-based, HEK293 TRPC4/mu-opioid, Fluo-4 calcium, dose response (AID 434942).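 Also: potency of inhibitors blocking the TRPC4 calcium response.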 The class given is functional.

For assay [3], the target named is T2, Rac GTPase-activating protein 1 (Homo sapiens, UniProt Q9H0H5).
T2 sequence (Q9H0H5 whole entry): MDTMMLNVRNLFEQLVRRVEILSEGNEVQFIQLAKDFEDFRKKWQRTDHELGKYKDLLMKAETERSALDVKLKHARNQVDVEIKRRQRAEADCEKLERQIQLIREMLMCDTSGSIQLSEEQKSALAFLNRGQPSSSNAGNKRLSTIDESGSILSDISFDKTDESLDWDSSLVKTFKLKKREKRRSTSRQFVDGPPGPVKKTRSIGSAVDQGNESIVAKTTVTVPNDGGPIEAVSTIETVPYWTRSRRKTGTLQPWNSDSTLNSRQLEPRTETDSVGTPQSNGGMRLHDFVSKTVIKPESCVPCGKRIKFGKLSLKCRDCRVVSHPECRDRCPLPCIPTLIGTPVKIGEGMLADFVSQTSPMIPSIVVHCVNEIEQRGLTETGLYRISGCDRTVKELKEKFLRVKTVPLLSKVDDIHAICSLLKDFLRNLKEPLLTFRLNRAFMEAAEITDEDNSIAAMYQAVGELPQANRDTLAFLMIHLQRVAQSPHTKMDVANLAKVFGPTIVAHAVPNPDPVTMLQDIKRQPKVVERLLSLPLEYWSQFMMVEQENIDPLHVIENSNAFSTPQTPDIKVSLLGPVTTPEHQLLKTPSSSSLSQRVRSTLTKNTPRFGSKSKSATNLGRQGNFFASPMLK
The assay can be described thus: blockers of MgcRacGAP-driven Rac1 GTP hydrolysis – biochemical, ADP Hunter fluorescence, primary and confirmatory, confirmation (AID 624330). In kind it is functional.

The nature of assay [4]: viability loss in HeLa cells – cytotoxicity control for MgcRacGAP inhibitor project, dose response (AID 624300). The class given is functional.
In the next assay the target is Nonstructural protein 1 (Influenza A virus, UniProt Q194T2). In kind it is functional, Influenza A virus (A/California/07/2009(H1N1)).
Sequence of Nonstructural protein 1 (Q194T2 whole entry): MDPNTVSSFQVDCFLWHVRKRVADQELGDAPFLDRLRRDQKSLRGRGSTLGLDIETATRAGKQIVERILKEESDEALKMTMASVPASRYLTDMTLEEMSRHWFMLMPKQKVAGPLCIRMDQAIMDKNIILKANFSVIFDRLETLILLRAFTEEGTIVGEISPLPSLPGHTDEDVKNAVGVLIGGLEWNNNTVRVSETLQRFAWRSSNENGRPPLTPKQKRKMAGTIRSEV
The target of assay [5] is T3, Sentrin-specific protease 8 (Homo sapiens, UniProt Q96LD8).
T3 sequence (Q96LD8 whole entry): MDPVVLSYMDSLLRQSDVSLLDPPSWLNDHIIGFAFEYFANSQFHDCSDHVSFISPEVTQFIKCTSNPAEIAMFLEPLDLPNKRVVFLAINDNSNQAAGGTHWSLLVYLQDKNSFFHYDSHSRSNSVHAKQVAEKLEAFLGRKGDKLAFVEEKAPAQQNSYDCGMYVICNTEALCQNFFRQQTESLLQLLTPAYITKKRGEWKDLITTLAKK
In kind it is functional.

The target of assay [6] is T3, Sentrin-specific protease 8. In kind it is functional. The source holds these as a separate data set.
Another assay has as its target Albumin (Bos taurus, UniProt P02769). Briefly: Counterscreen for inhibitors of T-cell receptor (TCR)-CD3 interaction: Fluorescence-based biochemical high throughput dose response assay to identify inhibitors of T-cell receptor (TCR)-CD3 interaction using a TAMRA-labeled BSA probe. In kind it is functional.
The target in assay [7] is T4, Long-chain-fatty-acid--AMP ligase FadD28 (Mycobacterium tuberculosis, UniProt P9WQ59).
T4 sequence (P9WQ59 whole entry): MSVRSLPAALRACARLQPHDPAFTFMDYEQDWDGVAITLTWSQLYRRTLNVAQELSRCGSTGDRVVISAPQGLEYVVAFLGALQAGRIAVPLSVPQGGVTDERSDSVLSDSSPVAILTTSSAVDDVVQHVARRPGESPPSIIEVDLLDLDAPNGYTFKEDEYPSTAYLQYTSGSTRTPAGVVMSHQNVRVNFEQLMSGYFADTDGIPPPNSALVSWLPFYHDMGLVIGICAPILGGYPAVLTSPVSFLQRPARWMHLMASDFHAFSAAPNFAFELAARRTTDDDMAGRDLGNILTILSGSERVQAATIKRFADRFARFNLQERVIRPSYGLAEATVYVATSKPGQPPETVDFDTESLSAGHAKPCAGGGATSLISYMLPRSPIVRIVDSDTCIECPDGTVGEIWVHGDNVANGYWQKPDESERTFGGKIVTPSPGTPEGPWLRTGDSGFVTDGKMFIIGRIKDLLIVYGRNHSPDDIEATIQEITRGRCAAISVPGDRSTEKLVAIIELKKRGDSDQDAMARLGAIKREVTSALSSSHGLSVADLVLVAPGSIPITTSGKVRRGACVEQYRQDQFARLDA
The assay can be described thus: Fluorescence polarization aasay to screen for inhibitors that compete for the binding of FadD28 to a bisubstrate Measured in Biochemical System Using Plate Reader - 2147-01_Inhibitor_Dose_CherryPick_Activity. In kind it is functional, Mycobacterium tuberculosis H37Rv.

Assay [8] concerns the target T5, Corticotropin-releasing factor receptor 2/Corticotropin-releasing factor-binding protein (Homo sapiens, UniProt P24387+Q13324).
T5 sequence (Q13324 whole entry): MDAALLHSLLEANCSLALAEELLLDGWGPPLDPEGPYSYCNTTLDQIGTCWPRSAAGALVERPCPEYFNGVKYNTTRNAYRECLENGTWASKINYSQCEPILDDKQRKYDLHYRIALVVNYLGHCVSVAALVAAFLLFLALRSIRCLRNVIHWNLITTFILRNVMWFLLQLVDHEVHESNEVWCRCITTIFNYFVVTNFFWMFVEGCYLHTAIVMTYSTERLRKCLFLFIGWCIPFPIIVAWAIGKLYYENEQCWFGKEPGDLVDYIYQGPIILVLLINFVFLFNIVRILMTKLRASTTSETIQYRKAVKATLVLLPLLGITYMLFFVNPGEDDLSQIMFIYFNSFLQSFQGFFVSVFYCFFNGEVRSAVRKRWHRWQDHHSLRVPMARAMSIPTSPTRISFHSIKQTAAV
T5 sequence (P24387 whole entry): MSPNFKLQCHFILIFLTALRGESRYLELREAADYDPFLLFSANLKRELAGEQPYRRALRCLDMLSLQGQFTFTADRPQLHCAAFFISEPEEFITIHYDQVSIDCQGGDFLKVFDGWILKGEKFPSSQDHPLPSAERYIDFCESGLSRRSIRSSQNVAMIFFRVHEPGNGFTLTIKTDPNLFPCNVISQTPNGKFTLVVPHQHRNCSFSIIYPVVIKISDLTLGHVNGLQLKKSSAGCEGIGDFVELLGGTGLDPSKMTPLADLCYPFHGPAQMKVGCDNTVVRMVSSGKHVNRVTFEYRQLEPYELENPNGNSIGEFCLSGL
The assay can be described thus: Dose Response confirmation of uHTS hits for small molecule antagonists of the CRF-binding protein and CRF-R2 receptor complex. In kind it is functional. To be noted: read-out: IC50_Mean.

For assay [9], the target named is T5, Corticotropin-releasing factor receptor 2/Corticotropin-releasing factor-binding protein. Briefly: activators of CRF receptor 2 with binding protein – uHTS hits, confirmation (AID 602473). In kind it is functional. To be noted: read-out: EC50_Mean.
The target of assay [10] is T6, Heat shock factor protein 1 (Mus musculus, UniProt P38532).
T6 sequence (P38532 whole entry): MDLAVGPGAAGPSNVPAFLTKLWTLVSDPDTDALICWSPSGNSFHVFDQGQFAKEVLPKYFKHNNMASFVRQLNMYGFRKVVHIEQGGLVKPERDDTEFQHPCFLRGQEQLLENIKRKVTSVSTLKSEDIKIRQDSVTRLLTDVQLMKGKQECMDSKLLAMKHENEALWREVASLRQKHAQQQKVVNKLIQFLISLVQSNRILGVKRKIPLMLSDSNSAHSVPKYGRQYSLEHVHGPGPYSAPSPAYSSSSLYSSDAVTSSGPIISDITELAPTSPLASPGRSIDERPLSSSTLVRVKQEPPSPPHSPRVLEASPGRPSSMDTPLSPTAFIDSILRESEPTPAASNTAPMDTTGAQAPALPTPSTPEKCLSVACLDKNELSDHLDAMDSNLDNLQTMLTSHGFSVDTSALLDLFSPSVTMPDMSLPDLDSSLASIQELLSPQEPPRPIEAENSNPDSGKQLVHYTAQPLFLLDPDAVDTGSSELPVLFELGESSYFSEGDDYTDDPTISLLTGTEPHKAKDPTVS
Briefly: enhancement of HSF1-driven luciferase signal – cell-based, NIH3T3, luminescence, dose retest, confirmation (AID 435004).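 Also: stress induced by proteasome inhibitor MG132 added 30 min after compound; luciferase reporter driven by HSF1 response element in NIH3T3 cells; actives raise luminescence as potentiators of the MG132 stress response.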 The class given is functional.

In assay [11] the target is Arf-GAP with SH3 domain, ANK repeat and PH domain-containing protein 1 (Homo sapiens, UniProt Q9ULH1). The class given is functional.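 Also: biochemical fluorescence polarization dose–response screen measuring inhibition of ASAP1; ASAP1 GAP domain stimulating GTP hydrolysis by truncated human ARF1.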
Sequence of Arf-GAP with SH3 domain, ANK repeat and PH domain-containing protein 1 (Q9ULH1 whole entry, the tested form may be a part): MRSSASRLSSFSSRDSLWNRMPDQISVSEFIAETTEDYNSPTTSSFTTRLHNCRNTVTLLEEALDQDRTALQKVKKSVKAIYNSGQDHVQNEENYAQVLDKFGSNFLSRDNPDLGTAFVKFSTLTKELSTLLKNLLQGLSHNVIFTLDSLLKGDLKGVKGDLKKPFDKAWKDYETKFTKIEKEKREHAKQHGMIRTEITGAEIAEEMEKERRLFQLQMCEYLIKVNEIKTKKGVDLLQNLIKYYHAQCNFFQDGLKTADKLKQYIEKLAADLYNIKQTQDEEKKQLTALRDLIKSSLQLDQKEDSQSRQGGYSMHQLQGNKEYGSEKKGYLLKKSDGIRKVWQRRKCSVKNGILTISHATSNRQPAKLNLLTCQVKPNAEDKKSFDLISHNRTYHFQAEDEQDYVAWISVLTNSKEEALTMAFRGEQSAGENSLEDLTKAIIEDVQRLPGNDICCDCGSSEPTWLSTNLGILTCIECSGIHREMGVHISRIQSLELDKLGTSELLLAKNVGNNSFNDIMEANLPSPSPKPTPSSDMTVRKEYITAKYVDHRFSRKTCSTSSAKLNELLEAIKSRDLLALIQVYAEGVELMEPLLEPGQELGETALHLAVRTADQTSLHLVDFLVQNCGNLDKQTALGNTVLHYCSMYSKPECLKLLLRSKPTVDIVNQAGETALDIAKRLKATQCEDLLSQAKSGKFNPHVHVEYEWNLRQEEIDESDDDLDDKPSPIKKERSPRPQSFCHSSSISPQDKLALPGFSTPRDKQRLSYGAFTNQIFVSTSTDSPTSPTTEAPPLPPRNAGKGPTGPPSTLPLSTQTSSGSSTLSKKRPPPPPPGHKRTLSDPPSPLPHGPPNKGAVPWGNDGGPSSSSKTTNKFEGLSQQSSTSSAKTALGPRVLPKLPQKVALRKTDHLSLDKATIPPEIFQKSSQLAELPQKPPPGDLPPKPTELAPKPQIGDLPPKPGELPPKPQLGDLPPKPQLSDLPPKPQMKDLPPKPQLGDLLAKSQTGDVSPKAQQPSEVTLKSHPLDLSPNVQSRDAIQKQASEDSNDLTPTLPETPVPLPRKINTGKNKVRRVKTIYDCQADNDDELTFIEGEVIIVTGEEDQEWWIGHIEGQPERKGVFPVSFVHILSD
Assay [12] deals with ADP-ribosylation factor GTPase-activating protein 1 (Rattus norvegicus, UniProt Q62848). The assay can be described thus: Fluorescence polarization-based biochemical high throughput dose response screening assay to identify inhibitors of ADP-ribosylation factor GTPase activating protein 1 (ARFGAP1). In kind it is functional.
Sequence of ADP-ribosylation factor GTPase-activating protein 1 (Q62848 whole entry): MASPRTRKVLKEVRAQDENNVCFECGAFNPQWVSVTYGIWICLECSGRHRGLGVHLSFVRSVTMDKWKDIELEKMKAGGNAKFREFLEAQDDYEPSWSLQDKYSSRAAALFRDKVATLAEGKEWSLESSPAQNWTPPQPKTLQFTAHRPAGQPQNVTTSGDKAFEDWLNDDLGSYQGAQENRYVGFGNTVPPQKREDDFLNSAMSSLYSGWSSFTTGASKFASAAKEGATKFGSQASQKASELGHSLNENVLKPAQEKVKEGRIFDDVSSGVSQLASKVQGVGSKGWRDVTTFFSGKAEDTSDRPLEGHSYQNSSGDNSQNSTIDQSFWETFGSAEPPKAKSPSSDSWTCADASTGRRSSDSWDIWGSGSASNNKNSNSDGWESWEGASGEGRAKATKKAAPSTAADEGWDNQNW
The target in assay [13] is T7, DNA repair protein RAD52 homolog (Homo sapiens, UniProt P43351).
T7 sequence (P43351 whole entry): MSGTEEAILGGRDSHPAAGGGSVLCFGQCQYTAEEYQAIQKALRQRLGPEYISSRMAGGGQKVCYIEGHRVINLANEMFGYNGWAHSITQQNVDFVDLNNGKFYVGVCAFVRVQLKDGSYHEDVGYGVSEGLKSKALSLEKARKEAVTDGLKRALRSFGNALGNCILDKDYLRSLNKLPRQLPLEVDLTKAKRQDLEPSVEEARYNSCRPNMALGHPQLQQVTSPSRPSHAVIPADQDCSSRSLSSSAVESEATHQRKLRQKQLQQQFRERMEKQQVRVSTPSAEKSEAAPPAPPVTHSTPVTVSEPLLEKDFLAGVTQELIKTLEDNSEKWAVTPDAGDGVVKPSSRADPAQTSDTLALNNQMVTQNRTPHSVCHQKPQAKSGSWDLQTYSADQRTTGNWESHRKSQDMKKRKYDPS
In kind it is functional, biochemical.

Sequence of 5-hydroxytryptamine receptor 2A (P35363 whole entry): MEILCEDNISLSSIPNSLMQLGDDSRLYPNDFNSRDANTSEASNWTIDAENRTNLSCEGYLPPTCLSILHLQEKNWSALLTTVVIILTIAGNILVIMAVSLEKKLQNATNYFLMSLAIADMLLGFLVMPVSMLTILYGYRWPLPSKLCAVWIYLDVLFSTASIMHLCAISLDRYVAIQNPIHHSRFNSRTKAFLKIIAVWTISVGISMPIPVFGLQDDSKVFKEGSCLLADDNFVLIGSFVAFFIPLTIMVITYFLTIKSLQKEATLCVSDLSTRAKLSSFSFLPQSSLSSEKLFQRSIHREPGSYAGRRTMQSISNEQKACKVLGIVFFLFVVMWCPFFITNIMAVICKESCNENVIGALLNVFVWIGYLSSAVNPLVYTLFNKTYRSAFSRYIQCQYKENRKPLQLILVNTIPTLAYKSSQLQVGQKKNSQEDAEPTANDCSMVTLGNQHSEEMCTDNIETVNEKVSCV
Sequence of Albumin (P02769 whole entry): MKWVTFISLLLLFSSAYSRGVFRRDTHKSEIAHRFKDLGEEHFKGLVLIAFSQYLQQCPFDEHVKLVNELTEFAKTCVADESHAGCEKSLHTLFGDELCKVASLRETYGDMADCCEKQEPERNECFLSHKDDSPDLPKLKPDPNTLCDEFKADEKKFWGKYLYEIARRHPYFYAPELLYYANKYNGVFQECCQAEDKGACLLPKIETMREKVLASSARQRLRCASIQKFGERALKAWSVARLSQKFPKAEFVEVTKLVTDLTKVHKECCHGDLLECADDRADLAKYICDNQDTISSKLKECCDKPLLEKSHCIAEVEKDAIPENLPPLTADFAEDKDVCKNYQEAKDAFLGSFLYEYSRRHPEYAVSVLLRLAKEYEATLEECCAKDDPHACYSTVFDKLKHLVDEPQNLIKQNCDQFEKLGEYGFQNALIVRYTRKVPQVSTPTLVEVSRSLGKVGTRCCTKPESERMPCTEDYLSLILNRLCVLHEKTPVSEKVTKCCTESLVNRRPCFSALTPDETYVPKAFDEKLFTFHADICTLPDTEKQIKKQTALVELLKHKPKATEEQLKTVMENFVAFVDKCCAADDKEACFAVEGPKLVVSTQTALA

For `CC(COc1ccccc1)N1CCC(CO)(Cc2ccccc2)CC1` (centres undefined), the EC50 in assay [1] was 0.59 µM (active); on Mu-type opioid receptor it was 92.5 µM (inactive); in [2], 5.96 µM (active).
As for `Cc1ccc(Cl)c(OCCCN(C)Cc2ccccc2)c1`, the IC50 in assay [3] is 165 µM (active). Moreover, the CC50 in assay [4] was 100 µM (active).
For `Cc1n[nH]c(O)c1C(c1c(C)n[nH]c1O)c1cn(Cc2ccc(F)cc2)c2ccccc12`, the IC50 at Nonstructural protein 1 is 47.2 µM (active); in assay [5], 6.07 µM (active); in [6], 5.81 µM (active).
In the case of `COc1ccc(C(=O)NC(=S)NNC(=O)c2ccc(O)cc2)cc1[N+](=O)[O-]`, the IC50 on Albumin is > 94.1 µM (inactive).
As to `COc1ccc(CC2(CO)CCN(Cc3cc4ccccc4o3)CC2)cc1`, the EC50 in [1] is 1.07 µM (active); on Mu-type opioid receptor it was 92.5 µM (inactive).
Turning to `CN(C)S(=O)(=O)c1cccc(C(=O)OCC(=O)Nc2sccc2C#N)c1`, in assay [7], the AC50 was > 100 µM (inactive).
`CN1c2ccccc2C(O)=C(C(S)=Nc2ccc(Cl)cc2)S1(=O)=O`: the IC50 in [8] is 24.7 µM (active). The AC50 in assay [7] was > 100 µM (inactive). The EC50 in assay [9] was > 53 µM (inactive); in [10], > 260 µM (inconclusive).
With `O=C(COc1ccc2oc(-c3ccco3)cc(=O)c2c1)N1CCCCC1`, the IC50 in [11] is 22.4 µM (inactive); in assay [12], 28.5 µM (inactive).
On to `O=Cc1ccc(N2N=C(c3ccccc3)CC2c2ccccc2)cc1` (centres undefined), for which the AC50 in [7] was 26.5 µM (active).
As to `COc1ccc(CN2CCN(c3ccccn3)CC2)c(OC)c1`, the EC50 in [1] was 0.529 µM (active); at Mu-type opioid receptor, 92.5 µM (inactive).
As for `Nc1ccc(CC2=NCCN2)cc1`, the AC50 in assay [13] is 0.739 µM (active).
On to `CCc1ccc(O)c(/N=C/c2ccccc2O)c1`, for which the IC50 in assay [3] is 36.9 µM (active). For the same molecule, the CC50 in assay [4] is 100 µM (active).
